Paper PMC10771296, “Plectasin: from evolution to truncation, expression, and better druggability” (Frontiers in Microbiology, 2023)
Where a SMILES comes first, the peptide text is derived from it. Bridges are numbered along the chain shown (N, C = ends).

Experiments:
S. aureus ATCC43300 = assay: Post-antibiotic effect; type: cell-based, Staphylococcus aureus; details: 2 h exposure, 1 × 10^8 CFU/mL, then diluted 1,000 times
Method: They were incubated at 37°C and 250 rpm, sampled, and coated on MHA plates for colony counting every hour. Phosphate-buffered saline (PBS) was used as a negative control, and vancomycin was used as a positive control. The calculation formula for the Post-antibiotic effect (PAE) was based on previous study ([Wu et al., 2022]).

mouse erythrocytes = assay: Hemolysis; type: cell-based; details: 8% mouse erythrocyte suspension, 37°C
Method: The hemolytic properties of the peptides were evaluated by measuring the amount of hemoglobin released from fresh mouse erythrocytes ([Yang et al., 2019]). Blood was collected from mice in sodium heparin anticoagulation tubes, and the erythrocytes were washed three or more times with 0.9% saline to obtain an 8% erythrocyte suspension. The erythrocyte suspension was mixed with an equal volume of Ple-AB at concentrations of 0.5–256 μg/mL, incubated at 37°C, and the absorbance values were measured at 540 nm. PBS and 0.1% Triton X-100 were used as the blank (A0) and positive controls (A100), respectively. Hemolysis (%) = [(A – A0)/(A100 – A0)] × 100, and three replicates were conducted for each case.

SMILES: CC[C@H](C)[C@@H]1NC(=O)[C@H](CO)NC(=O)[C@H](CCCCN)NC(=O)[C@@H]2CSSC[C@@H](C(=O)N[C@@H](Cc3ccc(O)cc3)C(=O)O)NC(=O)[C@H](CCCCN)NC(=O)[C@@H]3CSSC[C@H](NC(=O)[C@H](CCC(N)=O)NC(=O)[C@H](CCSC)NC(=O)[C@H](CCC(=O)O)NC(=O)[C@H](CC(=O)O)NC(=O)[C@H](Cc4c[nH]c5ccccc45)NC(=O)[C@@H]4CCCN4C(=O)[C@@H](NC(=O)CNC(=O)[C@H](Cc4ccccc4)NC(=O)CN)CSSC[C@H](NC(=O)[C@H](Cc4ccc(O)cc4)NC(=O)CNC(=O)CNC(=O)[C@H](CCCCN)NC(=O)[C@H](Cc4ccc(O)cc4)NC(=O)CNC(=O)[C@H](CCCCN)NC1=O)C(=O)N[C@@H](C)C(=O)N[C@@H](CCCCN)C(=O)NCC(=O)NCC(=O)N[C@@H](Cc1ccccc1)C(=O)N[C@@H](C(C)C)C(=O)N3)C(=O)N[C@@H](Cc1c[nH]cn1)C(=O)N[C@@H](CC(N)=O)C(=O)N[C@@H](Cc1c[nH]cn1)C(=O)N2 [Ple-AB] (H-GFGCPWDEMQCHNHCKSIKGYKGGYCAKGGFVCKCY-OH; disulfide 4-26, 11-33, 15-35; N-terminus and C-terminus assumed)
- PAE (post-antibiotic effect) (S. aureus ATCC43300; 1× MIC): 1.15 h
- PAE (post-antibiotic effect) (S. aureus ATCC43300; 2× MIC): 1.18 h
- PAE (post-antibiotic effect) (S. aureus ATCC43300; 4× MIC): 2.25 h
- Hemolytic rate (mouse erythrocytes; all concentrations 0.5–256 μg/mL, A540, three replicates): less than 2%
- Hemolytic rate (mouse erythrocytes; highest concentration, 256 μg/mL, A540): 1.07%
